In patent US20090074815A1, “Immunomodulator Compounds as Vaccine Enhancers” (SCICLONE PHARMACEUTICALS, INC., priority 2005, published 2009):
Where two headings read alike, the source gives them in different places. Marks after values point to notes of the source that are not given here.

What was measured:
[1] = tested on: lymphocytes; format: in vivo, human
[2] = tested on: thymic cells; assay: Expression of T-cell subpopulation and activation markers (CD69, CD25) on thymic cells, flow cytometry; format: in vivo, mice; details: for CD25-positive cells, % / CD69-positive, %: thymic cells cultured in vitro 48 hours
Excerpt: Materials and Methods: Eighteen (18) to twenty (20) gram (g) male mice, purchased from the Rappolovo Animal Facility, Russia, were used in the studies described below. C57BL/6 (B6) mice were used to evaluate the effect of SCV-07 in non-immunized mice. CBAxC57BL/6 (F1) mice were used for studies of the effects of SCV-07 on the antigen-specific immune response. Mice were kept under the standard animal facility conditions and were provided with a standard diet and water ad libitum. Each treatment group included 4-5 mice. […] Analysis by Flow Cytometry: […] The expression of T-cell subpopulation markers (CD3, CD4, and CD8) and activation markers (CD69 and CD25) on thymic cells and splenocytes was studied ex vivo 72 hours after the last treatment with SCV-07. […] The expression of the CD69 marker increased after oral administration of SCV-07 tablets at doses of 0.1 and 1.0 μg/kg of body mass as well as after i/p administration at a dose of 1.0 μg/kg.

[3] = tested on: IL-12R40 production by OvA-stimulated splenocytes; assay: OvA-stimulated production of IL-12R40 by splenocytes of OvA-immunized mice; details: for activity at 0.0001 mg/kg / activity at 0.001 mg/kg / activity at 0.01 mg/kg: Mus musculus, Splenocyte, po, read-out: Production of IL-12R40 by splenocytes, % (% of control), OvA/FA; for Production of IL-12R40 by splenocytes / Production of IL-12R40 by splenocytes, % (% of control): OvA/FA
Description: The OvA was administered subcutaneously to the crest in a volume of 200 μl. Mice were immunized on day 1 with OvA in complete Freund's adjuvant (CFA; Sigma) and on day 15 with the antigen in incomplete Freund's adjuvant (IFA; Sigma). The immune response was analyzed on day 29. Mice were also immunized with 10 μg/mouse of OvA using Alum as an adjuvant.
Thymuses and spleens from mice of each treatment group were pooled, and then minced with scissors. The minced tissues were suspended in sterile PBS to form cell suspensions, filtered through a double gauze layer and centrifuged. Cells were washed twice with PBS, re-suspended in RPMI-1640 (Sigma) with 2.0 mM of L-glutamine, 50 μM of mercaptoethanol, and 10 μg/ml of gentamycin (complete medium); and cell counts were made. (The splenocyte suspension was washed with a 0.86% solution of NH4Cl to pre-lyse erthrocytes.)
Assessment of Mitogen- and Antigen-Induced Production of Cytokines: Thymic cells (1×10^6/well) in complete medium with 2% FCS were stimulated with ConA (0, 1, and 2 μg/ml). Splenocytes (1×10^6/well) in complete medium with 5% FCS were stimulated with ConA (0, 1, and 5 μg/ml) and with OvA (0-100 μg/ml). […] Supernatants from OvA-stimulated cultures were collected after 72 hours. Supernatants from both cultures were frozen, and kept at 20° C. Concentrations of IL-2, IL-4, IL-10, IL-12R40 and IFNγ in the supernatants were determined by solid-phase EIA with EIA Expansion Kits, available from BD Biosciences (formerly Pharmingen), in accordance with the manufacturer's instructions.

[4] = tested on: HBsAg; format: in vivo, human; details: for Antibodies to HBsAg not detected, % / Antibodies to HBsAg not detected, Abs / Protective titer against HBsAg (>10 mMU/mL), % / Protective titer against HBsAg (>10 mMU/mL), Abs: one month after the end of vaccination; for concentration of antibodies to HBsAg in the blood: one month after immunization
[5] = Healthy of group 3 after vaccination
[6] = Patients of group 2 (SCV-07 + vaccine), After vaccination
[7] = 0.1 μg/kg per os, OvA 100 μg/ml
[8] = 1.0 μg/kg per os, OvA 100 μg/ml
[9] = 10.0 μg/kg per os, OvA 10 μg/ml
[10] = 10.0 μg/kg per os, OvA 25 μg/ml
[11] = 10.0 μg/kg per os, OvA 50 μg/ml
[12] = 10.0 μg/kg per os, OvA 100 μg/ml

N[C@H](CCC(=O)N[C@@H](Cc1c[nH]c2ccccc12)C(=O)O)C(=O)O [SCV-07, γ-D-glutamyl-L-tryptophan]
CD3+ (%) [1, 5]: 33.10 ± 1.88%
CD4+ (%) [1, 5]: 22.86 ± 1.94%
CD4+/CD8+ conv. units [1, 5]: 1.203 ± 0.094 conv. units
CD8+ (%) [1, 5]: 19.71 ± 1.53%
CD16+ (%) [1, 5]: 15.19 ± 1.24%
CD95+ (%) [1, 5]: 14.62 ± 1.60%
CD3+ (%) [1, 6]: 29.60 ± 2.41%
CD4+ (%) [1, 6]: 20.13 ± 1.65%
CD4+/CD8+ conv. units [1, 6]: 1.111 ± 0.086 conv. units
CD8+ (%) [1, 6]: 18.27 ± 1.01%
CD16+ (%) [1, 6]: 13.07 ± 1.18%
CD95+ (%) [1, 6]: 12.60 ± 1.18%
subpopulation composition of T-cells and expression of their activation markers ([2]; thymic cells and splenocytes ex vivo 72 hours after the last treatment, i/p or per os, data not shown): No significant differences
CD25-positive cells, % ([2]; 0.1 μg/kg Tablet, per os): 0.7%
CD69-positive, % ([2]; 0.1 μg/kg Tablet, per os): 3.35%
CD25-positive cells, % ([2]; 0.1 μg/kg i/p): 0.30%
CD69-positive, % ([2]; 0.1 μg/kg i/p): 2.03%
CD25-positive cells, % ([2]; 1.0 μg/kg Tablet, per os): 0.79%
CD69-positive, % ([2]; 1.0 μg/kg Tablet, per os): 4.61%
CD25-positive cells, % ([2]; 1.0 μg/kg i/p): 1.72%
CD69-positive, % ([2]; 1.0 μg/kg i/p): 7.86%
CD25-positive cells, % ([2]; 10.0 μg/kg Tablet, per os): 0.71%
CD69-positive, % ([2]; 10.0 μg/kg Tablet, per os): 2.24%
activity at 0.0001 mg/kg ([3]; 0.1 μg/kg per os, OvA 0 μg/ml): 100%
activity at 0.0001 mg/kg ([3]; 0.1 μg/kg per os, OvA 10 μg/ml): 36.6%
activity at 0.0001 mg/kg ([3]; 0.1 μg/kg per os, OvA 25 μg/ml): 24.3%
activity at 0.0001 mg/kg ([3]; 0.1 μg/kg per os, OvA 50 μg/ml): 20.4%
activity at 0.0001 mg/kg [3, 7]: 18.9%
activity at 0.001 mg/kg ([3]; 1.0 μg/kg per os, OvA 0 μg/ml): 100%
activity at 0.001 mg/kg ([3]; 1.0 μg/kg per os, OvA 10 μg/ml): 26.9%
activity at 0.001 mg/kg ([3]; 1.0 μg/kg per os, OvA 25 μg/ml): 23.8%
activity at 0.001 mg/kg ([3]; 1.0 μg/kg per os, OvA 50 μg/ml): 26.5%
activity at 0.001 mg/kg [3, 8]: 25.1%
activity at 0.01 mg/kg ([3]; 10.0 μg/kg per os, OvA 0 μg/ml): 100%
activity at 0.01 mg/kg [3, 9]: 52.9%
activity at 0.01 mg/kg [3, 10]: 40.7%
activity at 0.01 mg/kg [3, 11]: 32.4%
activity at 0.01 mg/kg [3, 12]: 31.9%
OvA-induced production of IL-12r40 by splenocytes versus control ([3]; OvA/Alum, per os or i/p, data not shown): No significant differences
Production of IL-12R40 by splenocytes ([3]; 0.1 μg/kg i/p, OvA 0 μg/ml): 1285.7 pg/mL
Production of IL-12R40 by splenocytes ([3]; 0.1 μg/kg i/p, OvA 10 μg/ml): 492.4 pg/mL
Production of IL-12R40 by splenocytes, % (% of control) ([3]; 0.1 μg/kg i/p, OvA 10 μg/ml): 38.3%
Production of IL-12R40 by splenocytes ([3]; 0.1 μg/kg i/p, OvA 25 μg/ml): 499.6 pg/mL
Production of IL-12R40 by splenocytes, % (% of control) ([3]; 0.1 μg/kg i/p, OvA 25 μg/ml): 38.9%
Production of IL-12R40 by splenocytes ([3]; 0.1 μg/kg i/p, OvA 50 μg/ml): 420.8 pg/mL
Production of IL-12R40 by splenocytes, % (% of control) ([3]; 0.1 μg/kg i/p, OvA 50 μg/ml): 32.7%
Production of IL-12R40 by splenocytes ([3]; 0.1 μg/kg i/p, OvA 100 μg/ml): 522.8 pg/mL
Production of IL-12R40 by splenocytes ([3]; 0.1 μg/kg per os, OvA 0 μg/ml): 1307.6 pg/mL
Production of IL-12R40 by splenocytes ([3]; 0.1 μg/kg per os, OvA 10 μg/ml): 478.1 pg/mL
Production of IL-12R40 by splenocytes ([3]; 0.1 μg/kg per os, OvA 25 μg/ml): 317.4 pg/mL
Production of IL-12R40 by splenocytes ([3]; 0.1 μg/kg per os, OvA 50 μg/ml): 267.0 pg/mL
Production of IL-12R40 by splenocytes [3, 7]: 246.5 pg/mL
Production of IL-12R40 by splenocytes ([3]; 1.0 μg/kg i/p, OvA 0 μg/ml): 1524.0 pg/mL
Production of IL-12R40 by splenocytes ([3]; 1.0 μg/kg i/p, OvA 10 μg/ml): 933.8 pg/mL
Production of IL-12R40 by splenocytes, % (% of control) ([3]; 1.0 μg/kg i/p, OvA 10 μg/ml): 61.3%
Production of IL-12R40 by splenocytes ([3]; 1.0 μg/kg i/p, OvA 25 μg/ml): 739.7 pg/mL
Production of IL-12R40 by splenocytes, % (% of control) ([3]; 1.0 μg/kg i/p, OvA 25 μg/ml): 48.5%
Production of IL-12R40 by splenocytes ([3]; 1.0 μg/kg i/p, OvA 50 μg/ml): 630.3 pg/mL
Production of IL-12R40 by splenocytes, % (% of control) ([3]; 1.0 μg/kg i/p, OvA 50 μg/ml): 41.4%
Production of IL-12R40 by splenocytes ([3]; 1.0 μg/kg i/p, OvA 100 μg/ml): 616.4 pg/mL
Production of IL-12R40 by splenocytes, % (% of control) ([3]; 1.0 μg/kg i/p, OvA 100 μg/ml): 40.4%
Production of IL-12R40 by splenocytes ([3]; 1.0 μg/kg per os, OvA 0 μg/ml): 1362.3 pg/mL
Production of IL-12R40 by splenocytes ([3]; 1.0 μg/kg per os, OvA 10 μg/ml): 366.3 pg/mL
Production of IL-12R40 by splenocytes ([3]; 1.0 μg/kg per os, OvA 25 μg/ml): 324.5 pg/mL
Production of IL-12R40 by splenocytes ([3]; 1.0 μg/kg per os, OvA 50 μg/ml): 360.8 pg/mL
Production of IL-12R40 by splenocytes [3, 8]: 342.4 pg/mL
Production of IL-12R40 by splenocytes ([3]; 10.0 μg/kg per os, OvA 0 μg/ml): 1455.1 pg/mL
Production of IL-12R40 by splenocytes [3, 9]: 769.3 pg/mL
Production of IL-12R40 by splenocytes [3, 10]: 592 pg/mL
Production of IL-12R40 by splenocytes [3, 11]: 471.9 pg/mL
Production of IL-12R40 by splenocytes [3, 12]: 464.8 pg/mL
Antibodies to HBsAg not detected, % ([4]; Group 2, SCV-07, n = 32): 3.1** %
Antibodies to HBsAg not detected, Abs ([4]; Group 2, SCV-07, n = 32): 1
Protective titer against HBsAg (>10 mMU/mL), % ([4]; Group 2, SCV-07, n = 32): 96.9%
Protective titer against HBsAg (>10 mMU/mL), Abs ([4]; Group 2, SCV-07, n = 32): 31
Antibodies to HBsAg not detected, % ([4]; Group 3, healthy, n = 33): 6.1* %
Antibodies to HBsAg not detected, Abs ([4]; Group 3, healthy, n = 33): 2
Protective titer against HBsAg (>10 mMU/mL), % ([4]; Group 3, healthy, n = 33): 93.9%
Protective titer against HBsAg (>10 mMU/mL), Abs ([4]; Group 3, healthy, n = 33): 31
concentration of antibodies to HBsAg in the blood ([4]; healthy subjects (Group III)): 253.6 MU/L
concentration of antibodies to HBsAg in the blood ([4]; immunodeficient patients who received SCV-07 at the time of vaccination): 263.3 MU/L
